“Also recorded” adds a separate entry of the source.
Key:
[1] = Initial pharmacokinetics and biodistribution in CD1 mice; format: in vivo, mouse; conditions: i.v., YM-01 20 mg/kg saline, YM-08 10 mg/kg 10% DMSO/saline
Procedure: (§1) (A) Initial pharmacokinetics and biodistribution of YM-01 and YM-08. Compounds were suspended in buffered saline (YM-01) or 10% DMSO/saline (YM-08) and injected at 20 and 10 mg/kg, respectively. YM-08 was not soluble in saline or 10% DMSO/saline at 20 mg/kg. The levels of YM-08 in the brain at 1 hr after injection could not be accurately determined because its value was outside the calibration curve. […] Results are average from data acquired from three female mice. (C) YM-08 maintains a B/P ratio of nearly 0.25 for 18 hrs.
(§2) The initial pharmacokinetics (PK) of YM-01 and YM-08 were tested in CD1 mice. […] After a single 6.6 mg/kg dose delivered i.v., the peak brain concentration of YM-08 was 4 μg/g (FIG. 7B) and the ratio in the brain:plasma (B/P) ratio was approximately 0.25 for 18 hrs (FIG. 7C). […] It is not yet clear how much tau levels need to be reduced to achieve therapeutic effects in disease models, but the area-under-the-curve (AUCinf) for YM-08 in the brain was 0.26 μg·hr/g and the AUCinf in plasma was 13.6 μg·hr/mL.

[2] = tested on: MCF-7, MCF-10A and MB-MDA-231 cells; assay: MTT assays, three cell lines; format: cell-based; conditions: range over MCF-7, MCF-10A and MB-MDA-231 cells
Procedure: YM-08 was tested whether it might retain the anti-cancer activity of MKT-077.

[3] = tested on: total and phospho-tau in wild type brain slices; assay: Tau levels in wild type brain slice cultures; format: cell-based, mouse
Procedure: YM-08 activity in a more physiological system was tested. Brain slice cultures from transgenic mice that express mutated tau were treated for 6 hours with YM-08 and the levels of total- and pS396/404 tau measured by Western blots. […] To test whether YM-08 might selectively reduce tau after microtubule disruption, brain slices were cultured from wild type mice and treated them with YM-08 plus the microtubule destabilizer, nocodazole. […] Together, these studies add to growing evidence that Hsp70 selectively identifies tau variants that are not associated with the normal microtubule network, likely minimizing their aggregation and proteotoxicity.

[4] = tested on: stress inducible Hsp72 (HSPA1); assay: Stress response in treated HeLaC3 cell lysates; format: cell-based, human
[5] = Solubility in dosing vehicle; format: physicochemical
Procedure: as §1, §2

[6] = target: prokaryotic Hsp70 (DnaK) binding to denatured luciferase (Escherichia coli, UniProt P0A6Y8); assay: Luciferase binding assay; format: biochemical; conditions: 50 μM
Chain of prokaryotic Hsp70 (DnaK) binding to denatured luciferase (P0A6Y8 whole entry): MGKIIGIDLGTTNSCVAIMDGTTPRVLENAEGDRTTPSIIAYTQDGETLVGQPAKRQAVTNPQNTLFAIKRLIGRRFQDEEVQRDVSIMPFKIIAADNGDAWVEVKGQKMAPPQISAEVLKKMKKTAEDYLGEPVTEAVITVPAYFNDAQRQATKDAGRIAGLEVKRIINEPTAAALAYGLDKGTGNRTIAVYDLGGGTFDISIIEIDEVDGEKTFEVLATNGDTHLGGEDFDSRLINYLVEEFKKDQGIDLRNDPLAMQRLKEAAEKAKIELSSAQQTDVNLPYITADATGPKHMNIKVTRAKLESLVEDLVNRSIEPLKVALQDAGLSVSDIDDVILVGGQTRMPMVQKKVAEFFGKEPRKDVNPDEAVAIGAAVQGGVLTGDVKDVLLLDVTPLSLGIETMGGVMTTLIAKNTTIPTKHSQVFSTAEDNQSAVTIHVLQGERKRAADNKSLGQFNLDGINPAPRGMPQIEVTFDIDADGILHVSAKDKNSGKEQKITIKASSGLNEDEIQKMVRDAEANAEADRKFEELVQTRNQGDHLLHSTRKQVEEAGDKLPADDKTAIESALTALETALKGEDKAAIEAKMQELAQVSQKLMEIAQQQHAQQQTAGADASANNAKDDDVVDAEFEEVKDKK
Procedure: (§3) Next, the effect of chaperone functions by binding of YM-08 to Hsp70 was investigated. […] This profile is shared with other allosteric Hsp70 inhibitors. As another test of chaperone function, the effects of the compounds on the binding of Hsp70 to a misfolded protein were measured. In previous work, MKT-077 stabilized the interaction between prokaryotic Hsp70 (DnaK) and denatured luciferase. Briefly, this assay involves immobilizing unfolded luciferase in microtiter plates and measuring binding to DnaK. […] To explore whether YM-08 might also enhance binding of Hsp70 to a more physiologically relevant substrate, binding of tau to immobilized human Hsc70 was measured.
(§4) Binding of prokaryotic Hsp70 (DnaK) to denatured luciferase was measured as previously described, in e.g., Miyata, et al., J. Biomol. Screen, 15:1211-1219 (2010). Briefly, firefly luciferase (0.2 mg/mL) was proteolyzed with trypsin and immobilized in 96-well microtiter plates. After washing, the binding of luciferase to DnaK (500 nM) was measured using an anti-DnaK antibody and HRP secondary antibody. A similar strategy was used to monitor binding of human Hsc70 to tau, as previously described in Thompson, et al., ACS Chem. Biol., 7:1677-1686 (2012).

human Hsc70 = target: T1, human Hsc70 (Homo sapiens, UniProt P11142); assay: Binding of tau to immobilized human Hsc70; format: biochemical
T1 construct: made in house
T1 sequence (P11142 2-646): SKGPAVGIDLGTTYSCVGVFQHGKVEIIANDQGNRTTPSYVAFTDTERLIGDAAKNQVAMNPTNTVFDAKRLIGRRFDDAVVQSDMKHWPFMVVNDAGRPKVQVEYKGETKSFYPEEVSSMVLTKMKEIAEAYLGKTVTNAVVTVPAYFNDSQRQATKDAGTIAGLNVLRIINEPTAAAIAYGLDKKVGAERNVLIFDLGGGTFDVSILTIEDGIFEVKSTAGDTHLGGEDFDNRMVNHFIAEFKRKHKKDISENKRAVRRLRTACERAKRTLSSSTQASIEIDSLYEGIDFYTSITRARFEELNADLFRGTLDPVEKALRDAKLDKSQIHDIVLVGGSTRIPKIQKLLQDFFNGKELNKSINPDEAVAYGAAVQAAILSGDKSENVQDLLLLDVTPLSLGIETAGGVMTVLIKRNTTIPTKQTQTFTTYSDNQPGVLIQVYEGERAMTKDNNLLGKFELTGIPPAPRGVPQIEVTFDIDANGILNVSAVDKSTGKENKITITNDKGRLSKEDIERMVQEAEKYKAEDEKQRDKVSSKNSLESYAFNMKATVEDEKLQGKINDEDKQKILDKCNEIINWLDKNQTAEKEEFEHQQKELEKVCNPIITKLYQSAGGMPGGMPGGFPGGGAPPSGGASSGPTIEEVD
Procedure: as §3, §4

Hsp72 (HSPA1) = target: T2, Hsp72 (HSPA1) (Homo sapiens, UniProt P0DMV8); assay: Biolayer interferometry (Octet Red), Hsp72; format: binding; conditions: immobilized full length Hsp72
T2 construct: Biotinylated human Hsc70NBD or full length Hsp72 were first immobilized; made in house
T2 sequence (P0DMV8 whole entry): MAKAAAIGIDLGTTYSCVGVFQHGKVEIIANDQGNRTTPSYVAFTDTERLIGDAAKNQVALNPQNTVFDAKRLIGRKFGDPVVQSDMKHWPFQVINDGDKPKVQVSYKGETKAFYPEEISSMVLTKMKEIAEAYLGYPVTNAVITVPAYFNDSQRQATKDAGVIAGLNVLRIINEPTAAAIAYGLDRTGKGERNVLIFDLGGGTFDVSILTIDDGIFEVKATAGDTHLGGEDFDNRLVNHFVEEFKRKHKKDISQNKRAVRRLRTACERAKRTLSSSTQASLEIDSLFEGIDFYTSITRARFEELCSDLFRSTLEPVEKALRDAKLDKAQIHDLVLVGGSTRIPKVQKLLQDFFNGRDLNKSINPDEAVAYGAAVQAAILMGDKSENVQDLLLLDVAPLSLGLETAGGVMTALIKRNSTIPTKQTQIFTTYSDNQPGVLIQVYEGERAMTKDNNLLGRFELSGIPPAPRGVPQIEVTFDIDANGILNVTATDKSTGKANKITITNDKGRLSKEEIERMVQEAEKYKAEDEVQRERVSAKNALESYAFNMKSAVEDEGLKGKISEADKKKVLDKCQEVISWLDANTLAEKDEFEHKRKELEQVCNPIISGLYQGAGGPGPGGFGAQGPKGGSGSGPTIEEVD
Procedure: Binding of MKT-077 analogs to immobilized Hsp70 was evaluated using a competitive ELISA. In this established assay, a biotinylated version of MKT-077 is bound to immobilized human Hsc70 (HSPA8) and potential competitors are tested for their ability to block the interaction. […] As further controls, the truncated compounds YM-02, YM-03, YM-04 and YM-07 were tested.
Biotinylated human Hsc70NBD or full length Hsp72 were first immobilized on super streptavidin biosensors (ForteBio, 18-5057) as follows: biosensors were soaked with MG buffer (100 mM Tris base, 20 mM KCl, 6 mM MgCl2, 0.01% Triton X-100, pH 7.4) for 10 min before moving them to wells either containing 200 μL […] biotinylated proteins or […] biocytin for 60 min. The free streptavidin sites were subsequently quenched with […] biocytin for 10 min. The biosensors were washed with MG buffer for 5 min prior to beginning the binding experiments. The association and disassociation steps were carried out in MG buffer with a constant 10% DMSO concentration. All steps were performed at room temperature and with 1000 rpm rotary shaking. […] The apparent affinities of YM-08 for Hsc70NBD and Hsp72 were calculated from both equilibrium measurements and global fits of the kon and koff values, yielding similar values.

MEF (C57BL/6) = assay: Cell survival, MEF; format: cell-based; conditions: Mus musculus; tau activity screen table; read-out: MEF IC50

CCn1c(=O)/c(=C2\Sc3ccccc3N2C)s/c1=C\c1ccccn1 [YM-08, (2Z,5E)-3-ethyl-5-(3-methylbenzo[d]thiazol-2(3H)-ylidene)-2-(pyridin-2-ylmethylene)thiazolidin-4-one]
kidney distribution ([1]; 0.16 and 1 hrs): reduced retention in the kidney
brain penetration ([1]; 0.16 hrs): abundant in the brain
EC50 [2]: 7.8 to 10.5 µM
tau levels, YM-08 alone [3]: unchanged; also recorded: did not significantly reduce tau levels
total and phospho-tau levels, plus nocodazole ([3]; microtubule disruption): decreased levels of both total and phospho-tau
stress response (Hsp72 levels) [4]: did not induce a stress response
solubility in saline or 10% DMSO/saline [5]: not soluble; also recorded: only marginally soluble
enhancement of DnaK binding to denatured luciferase [6]: about 30%
affinity of chaperone for tau substrate (human Hsc70): enhanced the affinity
Kd (Hsp72 (HSPA1)): ~2000 nM
IC50 (MEF (C57BL/6)): 4.2 ± 0.24 µM

— patent US9808448B2, “Pharmaceutical compounds and use of same in cancer and tauopathies” (THE REGENTS OF THE UNIVERSITY OF MICHIGAN, priority 2013, dated 2017)
